Assay results taken from patent publication US10450610B2, “Single nucleotide polymorphisms (SNP) and association with resistance to immune tolerance induction” (University of Tennessee Research Foundation, priority 2008, dated 2019).
Where “and” joins values, the source holds several entries; their conditions need not be identical. Equal values may be shown once. Entries after “also recorded” stand apart in the source; their conditions may differ.

Assays:
[1] = Phase II oral CI tolerance clinical trial in SSc; change in MRSS; format: in vivo, human; settings: CI treated vs placebo treated completers, Late Phase ROT1AA patients deleted; Wilcoxon Rank Sum test; FIG. 16
Description: In the Phase II oral CI tolerance clinical trial at 12 months, 79 SSc patients were genotyped of the 168 enrolled in the clinical trial. Seven of the 23 ROT1AA genotype were in the Late Phase category, and deleted from the results.

PBMC = test: Oral type I collagen in SSc patients; change in IL-10 production by antigen-stimulated PBMC; format: in vivo, human
Experimental: Samples from 26 patients from a trial of oral type I collagen (CI) in patients with diffuse systemic sclerosis (SSc) who took 500 μg/day CI for 12 months were collected. […] No patients were on DMARDs, biologies, NSAIDS or prednisone.
Patients with ROT1 AA, GG or GA genotype had IL-10 measured of IL-PBMC cultures stimulated by α1(I) CB mixture, α2(I) CB mixture, or native CI after receiving oral CI for 12 months minus the values of IL-10 in the supernatants of PBMC cultures stimulated with the same antigens at baseline before oral CI was administered to the SSc patients.

[2] = group mean, Genotype AA (N = 6)
[3] = individual SSc patients, Genotype AA, after 12 months oral CI 500 μg/day minus baseline
[4] = individual SSc patients, Genotype GG or GA, after 12 months oral CI 500 μg/day minus baseline
[5] = patients with ROT1 AA genotype, oral bovine CI 500 ug/day for 12 months

## type I collagen [CI]
[1]
  change in MRSS at 12 months from baseline values: significant difference
PBMC; [2]
  IL-10 production change, Bovine Native CI: -825 ± 338 pg/mL
  IL-10 production change, Bovine α1(I) CB Mix: -622 ± 480 pg/mL
  IL-10 production change, Bovine α2(I) CB Mix: -975 ± 627 pg/mL
PBMC; group mean, Genotype GG or GA
  IL-10 production change, Bovine α1(I) CB Mix: 30 ± 119 pg/mL
  IL-10 production change, Bovine α2(I) CB Mix: 22 ± 156 pg/mL
PBMC; group mean, Genotype GG or GA (BB or BA)
  IL-10 production change, Bovine Native CI: 27 ± 97 pg/mL
PBMC; [3]
  IL-10 production change, Bovine Native CI: −1726 pg/ml and +70 pg/ml and −920 pg/ml and −233 pg/ml and −1886 pg/ml and −253 pg/ml
  IL-10 production change, Bovine α1(I) CB Mix: −342 pg/ml and −19 pg/ml and −611 pg/ml and −112 pg/ml and −2942 pg/ml and +295 pg/ml
  IL-10 production change, Bovine α2(I) CB Mix: −1692 pg/ml and +28 pg/ml and −494 pg/ml and +490 pg/ml and −3736 pg/ml and −448 pg/ml
PBMC; [4]
  IL-10 production change, Bovine Native CI: −135 pg/ml and +566 pg/ml and −334 pg/ml and +192 pg/ml (2×) and +103 pg/ml and +386 pg/ml and −1564 pg/ml and +233 pg/ml and +21 pg/ml and +237 pg/ml and +150 pg/ml and −94 pg/ml and +32 pg/ml and −282 pg/ml and +232 pg/ml and −52 pg/ml and +43 pg/ml and +269 pg/ml and +341 pg/ml
  IL-10 production change, Bovine α1(I) CB Mix: −314 pg/ml and +410 pg/ml and −104 pg/ml and −391 pg/ml and +529 pg/ml and +216 pg/ml and −968 pg/ml and +347 pg/ml and −397 pg/ml and +1364 pg/ml and +108 pg/ml and −205 pg/ml and −81 pg/ml and −561 pg/ml and +582 pg/ml and −46 pg/ml and −538 pg/ml and −227 pg/ml and +663 pg/ml and +221 pg/ml
  IL-10 production change, Bovine α2(I) CB Mix: −388 pg/ml and +203 pg/ml and −86 pg/ml and −180 pg/ml and +859 pg/ml and +546 pg/ml and −1000 pg/ml and +261 pg/ml and −2021 pg/ml and +1460 pg/ml and +145 pg/ml and −113 pg/ml and +141 pg/ml (2×) and −509 pg/ml and +5 pg/ml and +381 pg/ml and +252 pg/ml and −115 pg/ml and −415 pg/ml
PBMC; [5]
  IL-10 production by PBMC cultured with native bovine CI and α2(I) CB mixture: did not upregulate IL-10 production; also recorded: deficient upregulation of IL-10 production
  IL-10 production by PBMC cultured with α1(I) CB mixture: trend toward defective production
